Assay results published in PMC4209162, “Specific aromatic foldamers potently inhibit spontaneous and seeded Aβ42 and Aβ43 fibril assembly” (Biochemical Journal, 2014).
pIC50: −log10 of the molar value. Entries after “also recorded” stand apart in the source; their conditions may differ.

What was measured:
Aβ43 [1] = target: T1, Aβ43 (Homo sapiens, UniProt P05067); assay: Spontaneous Aβ43 fibrillization (ThT fluorescence, EM); type: biochemical; settings: for Inhibition of spontaneous Aβ43 fibrillization: foldamer 5, 10 or 20 μM, 0–8 h, EM 10 μM 4 h; for Inhibition of spontaneous Aβ43 fibrillization / Inhibition of spontaneous Aβ43 fibrillization, different assembly conditions: ThT; for Inhibition of spontaneous Aβ43 fibrillization, different assembly conditions: Aβ prepared without DMSO, PBE pH 8, Aβ43 5 μM, foldamer 20 μM, 16 h
Aβ42 [2] = target: T2, Aβ42 (Homo sapiens, UniProt P05067); assay: Spontaneous Aβ42 fibrillization (ThT fluorescence, EM); type: biochemical; settings: for Inhibition of spontaneous Aβ42 fibrillization: Aβ42 5 μM, foldamer 10 μM, 8 h, agitation, ThT fluorescence (EM 4 h); for Inhibition of spontaneous Aβ42 fibrillization / Inhibition of spontaneous Aβ42 fibrillization, different assembly conditions: 25°C; for Inhibition of spontaneous Aβ42 fibrillization, different assembly conditions: Aβ prepared without DMSO, PBE pH 8, Aβ42 5 μM, foldamer 20 μM, 16 h, ThT
[3] = test system: SH-SY5Y human neuroblastoma cells; assay: Toxicity of Aβ42 conformers to SH-SY5Y cells (MTT reduction, LDH release); type: cell-based; settings: 24 h, MTT and LDH; for Effect on toxicity of Aβ42 conformers after 0.5 h of assembly: Aβ42 5 μM assembled with foldamer 20 μM for 0.5 h; for Effect on toxicity of Aβ42 conformers after 4 h of assembly: Aβ42 5 μM assembled with foldamer 20 μM for 4 h
Description: (§1) SH-SY5Y human neuroblastoma cells were maintained in Dulbecco's modified Eagle's medium (DMEM) plus 10 mM Hepes, 10% FBS, 4 mM glutamine, penicillin (200 units/ml) and streptomycin (200 μg/ml) in 5% CO2 at 37°C. Cells were differentiated in serum-free DMEM with N2 supplement and 10 μM all-trans-retinoic acid before use. Cells were plated at (10000 cells/well) in 96-well plates and grown overnight. Medium was removed and Aβ conformers or controls were added and cells were incubated for 24 h at 37°C. Toxicity was assessed using an MTT kit (Tox-1; Sigma) or via lactate dehydrogenase (LDH) release using the CytoTox-ONE™ kit (Promega). Toxicity values were normalized to the buffer control without Aβ.

Aβ42 oligomers = Aβ42 oligomers (Homo sapiens, UniProt P05067); assay: A11-reactive Aβ42 conformers (ELISA); type: biochemical; settings: Aβ42 5 μM, foldamer 20 μM, 25°C; for Effect on A11-reactive Aβ42 conformers after 0.5 h: 0.5 h (end of lag phase); for Effect on A11-reactive Aβ42 conformers after 4 h: 4 h (endpoint of fibrillization)
Aβ42 [4] = target: T2, Aβ42; assay: Seeded Aβ42 fibrillization (ThT fluorescence, EM); type: biochemical; settings: for Inhibition of seeded Aβ42 fibrillization: foldamer 5, 10 or 20 μM, 0–2 h, 25°C; for Inhibition of seeded Aβ42 fibrillization, different assembly conditions: Aβ prepared without DMSO, PBE pH 8, Aβ42 5 μM plus seed 0.1 μM monomer, 16 h
Aβ42 fibrils = Aβ42 fibrils (Homo sapiens, UniProt P05067); assay: Disassembly of preformed Aβ42 fibrils; type: biochemical; settings: foldamer in 4-fold molar excess, 24 h (results not shown)
Aβ43 oligomers = Aβ43 oligomers (Homo sapiens, UniProt P05067); assay: A11-reactive Aβ43 conformers (ELISA); type: biochemical; settings: Aβ43 5 μM, foldamer 20 μM, 25°C; for Effect on A11-reactive Aβ43 conformers after 0.5 h: 0.5 h (end of lag phase); for Effect on A11-reactive Aβ43 conformers after 4 h: 4 h (endpoint of fibrillization)
Aβ43 [5] = target: T1, Aβ43; assay: Seeded Aβ43 fibrillization (ThT fluorescence, EM); type: biochemical; settings: ThT; for Inhibition of seeded Aβ43 fibrillization: Aβ43 5 μM plus seed 0.1 μM monomer, foldamer 5, 10 or 20 μM, 0–2 h, 25°C, EM; for Inhibition of seeded Aβ43 fibrillization, different assembly conditions: Aβ prepared without DMSO, PBE pH 8, Aβ43 5 μM plus seed 0.1 μM monomer, foldamer 20 μM, 16 h
FUS = target: T3, FUS (Homo sapiens, UniProt P35637); assay: FUS aggregation (turbidity, absorbance at 395 nm); type: biochemical; settings: GST-FUS 5 μM, foldamer 20 μM, plus TEV protease, 25°C, 0–90 min
T3 sequence (P35637 1-526): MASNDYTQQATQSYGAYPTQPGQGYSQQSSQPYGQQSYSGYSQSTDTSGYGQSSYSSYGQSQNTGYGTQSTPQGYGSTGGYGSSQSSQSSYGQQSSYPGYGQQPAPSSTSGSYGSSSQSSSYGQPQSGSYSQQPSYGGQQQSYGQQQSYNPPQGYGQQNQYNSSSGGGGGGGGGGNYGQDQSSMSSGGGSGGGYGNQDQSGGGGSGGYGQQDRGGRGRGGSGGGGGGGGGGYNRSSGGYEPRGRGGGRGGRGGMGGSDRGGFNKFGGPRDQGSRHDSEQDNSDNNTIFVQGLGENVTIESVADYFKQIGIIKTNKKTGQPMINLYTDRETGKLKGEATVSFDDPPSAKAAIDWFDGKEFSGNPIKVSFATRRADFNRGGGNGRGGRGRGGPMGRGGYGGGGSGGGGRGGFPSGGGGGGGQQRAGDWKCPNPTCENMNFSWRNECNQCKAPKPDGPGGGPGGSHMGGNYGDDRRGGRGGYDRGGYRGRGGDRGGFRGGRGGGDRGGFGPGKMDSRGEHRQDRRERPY
Description: GST–TEV–FUS was purified as described. Aggregation was initiated by addition of tobbaco etch virus (TEV) protease to GST–TEV–FUS (5 μM) plus or minus foldamer (20 μM) in assembly buffer (50 mM Tris/HCl pH 8, 0.2 M trehalose and 20 mM glutathione). Aggregation was for 0–90 min at 25°C without agitation in a 96-well plate and was assessed by turbidity (absorbance at 395 nm) using a Tecan Infinite M1000 plate reader. No aggregation occurred unless TEV protease was added to separate GST from FUS [58].

[6] = test system: SH-SY5Y human neuroblastoma cells; assay: Toxicity of Aβ43 conformers to SH-SY5Y cells (MTT reduction, LDH release); type: cell-based; settings: 24 h, MTT and LDH; for Effect on toxicity of Aβ43 conformers after 0.5 h of assembly: Aβ43 5 μM assembled with foldamer 20 μM for 0.5 h; for Effect on toxicity of Aβ43 conformers after 4 h of assembly: Aβ43 5 μM assembled with foldamer 20 μM for 4 h
Description: as §1

[7] = Aβ42 5 μM plus seed 0.1 μM monomer

Aβ42 oligomers, sequence (P05067 672-713 limits assumed): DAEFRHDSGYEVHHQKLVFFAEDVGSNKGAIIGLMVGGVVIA
T2 sequence (P05067 672-713 limits assumed): as above
Aβ43 oligomers, sequence (P05067 672-714 limits assumed): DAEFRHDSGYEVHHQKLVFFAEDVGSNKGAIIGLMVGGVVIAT
T1 sequence (P05067 672-714 limits assumed): as above
Aβ42 fibrils, sequence (P05067 672-713 limits assumed): as the sequence (P05067 672-713 limits assumed) above

`COc1ccc(NC(=O)[C@H](CCCNC(N)=O)NC(=O)c2cc(NC(=O)[C@H](CCCNC(=N)N)NC(=O)c3cc(NC(=O)[C@H](CCCNC(=N)N)NC(=O)c4cc(NC(=O)[C@@H](N)CCCNC(=N)N)ccc4OC)ccc3OC)ccc2OC)cc1C(N)=O` [(Arg-Sal)3-(Cit-Sal)-CONH2] showed a pIC50 (Aβ43 [1]) of about 5.51 and a pIC50 (Aβ42 [2]) of about 5.80.

(Arg-Benz)4-CONH2 was tested, and the “Effect on toxicity of Aβ42 conformers after 0.5 h of assembly” value [3] was “had no effect”, the “Effect on toxicity of Aβ42 conformers after 4 h of assembly” value [3] was “enhanced” and the “Major Aβ43 species by EM” value (Aβ43 [1]; Aβ43 5 μM, foldamer 10 μM, 4 h, 25°C) was “small oligomers were the major species”. For the same compound, the “Inhibition of spontaneous Aβ43 fibrillization” value (Aβ43 [1]; Aβ43 5 μM, 25°C) was “blocked spontaneous Aβ43 fibrillization”, the “Inhibition of spontaneous Aβ43 fibrillization, different assembly conditions” value (Aβ43 [1]; 25°C) was “inhibited” and the “Effect on A11-reactive Aβ42 conformers after 0.5 h” value (Aβ42 oligomers) was “had no effect”. The “Effect on A11-reactive Aβ42 conformers after 4 h” value (Aβ42 oligomers) was “remained at higher levels”, the “Extent of seeded Aβ42 fibrillization at 4-fold molar excess of foldamer” value (Aβ42 [4]; Aβ42 5 μM plus seed 0.1 μM monomer, foldamer 20 μM) was “some fibrillization occurred” and the “Inhibition of seeded Aβ42 fibrillization” value (Aβ42 [4]; [7]) was “only inhibited seeded Aβ42 fibrillization when present at a 4-fold molar excess over Aβ42”. The “Inhibition of seeded Aβ42 fibrillization, different assembly conditions” value (Aβ42 [4]; foldamer 20 μM) was “inhibited”, the “Disassembly of Aβ42 fibrils” value (Aβ42 fibrils) was “did not disassemble Aβ42 fibrils” and the “Inhibition of spontaneous Aβ42 fibrillization” value (Aβ42 [2]) was “strong inhibitors; also recorded: potent inhibitors”. For the same compound, the “Inhibition of spontaneous Aβ42 fibrillization, different assembly conditions” value (Aβ42 [2]) was “inhibited”, the “Effect on A11-reactive Aβ43 conformers after 0.5 h” value (Aβ43 oligomers) was “had no effect” and the “Effect on A11-reactive Aβ43 conformers after 4 h” value (Aβ43 oligomers) was “had a similar effect”. The “Inhibition of seeded Aβ43 fibrillization” value (Aβ43 [5]) was “blocked seeded Aβ43 fibrillization”, the “Inhibition of seeded Aβ43 fibrillization, different assembly conditions” value (Aβ43 [5]) was “inhibited” and the “Inhibition of FUS aggregation” value (FUS) was “did not inhibit FUS aggregation”. The “Effect on toxicity of Aβ43 conformers after 0.5 h of assembly” value [6] was “had no effect” and the “Effect on toxicity of Aβ43 conformers after 4 h of assembly” value [6] was “enhanced”.

(Arg-Sal)2-(Cit-Sal)-(Arg-Sal)-CONH2 was tested, and the “Inhibition of spontaneous Aβ42 fibrillization” value (Aβ42 [2]) was “ineffective”.

For (Arg-Sal-Cit-Sal)2-CONH2, the “Inhibition of spontaneous Aβ42 fibrillization” value (Aβ42 [2]) was “ineffective”.

(Cit-Sal)2-(Arg-Sal)-(Cit-Sal)-CONH2 was tested, and the “Inhibition of spontaneous Aβ42 fibrillization” value (Aβ42 [2]) was “ineffective”.

With (Cit-Sal)4-CONH2 the “Effect on toxicity of Aβ42 conformers after 0.5 h of assembly” value [3] was “had no effect on toxicity”, the “Effect on toxicity of Aβ42 conformers after 4 h of assembly” value [3] was “had no effect on toxicity” and the “Inhibition of spontaneous Aβ43 fibrillization, different assembly conditions” value (Aβ43 [1]; 25°C) was “had no effect”. The “Effect on A11-reactive Aβ42 conformers after 0.5 h” value (Aβ42 oligomers) was “had no effect”, the “Effect on A11-reactive Aβ42 conformers after 4 h” value (Aβ42 oligomers) was “had no effect” and the “Inhibition of seeded Aβ42 fibrillization, different assembly conditions” value (Aβ42 [4]; foldamer 20 μM) was “had no effect”. For the same compound, the “Inhibition of spontaneous Aβ42 fibrillization” value (Aβ42 [2]) was “ineffective”, the “Inhibition of spontaneous Aβ42 fibrillization, different assembly conditions” value (Aβ42 [2]) was “had no effect” and the “Effect on A11-reactive Aβ43 conformers after 0.5 h” value (Aβ43 oligomers) was “had no effect”. The “Effect on A11-reactive Aβ43 conformers after 4 h” value (Aβ43 oligomers) was “had no effect”, the “Inhibition of seeded Aβ43 fibrillization, different assembly conditions” value (Aβ43 [5]) was “had no effect” and the “Effect on toxicity of Aβ43 conformers after 0.5 h of assembly” value [6] was “had no effect on toxicity”. The “Effect on toxicity of Aβ43 conformers after 4 h of assembly” value [6] was “had no effect on toxicity”.

(Cit-Sal)-(Arg-Sal)-(Cit-Sal)2-CONH2 was tested, and the “Inhibition of spontaneous Aβ42 fibrillization” value (Aβ42 [2]) was “ineffective”.

For (Lys-Sal)2-CONH2, the “Inhibition of spontaneous Aβ42 fibrillization” value (Aβ42 [2]) was “failed to inhibit assembly”.

In the case of (Lys-Sal)3-CONH2, the “Inhibition of spontaneous Aβ42 fibrillization” value (Aβ42 [2]) was “failed to inhibit assembly”.

For (Lys-Sal)4-COMe, the “Inhibition of spontaneous Aβ42 fibrillization” value (Aβ42 [2]) was “ineffective”.

In the case of (Lys-Sal)4-CONH2, the “Inhibition of spontaneous Aβ42 fibrillization” value (Aβ42 [2]) was “ineffective”.

(Lys-Sal)4-COOH was tested, and the “Inhibition of spontaneous Aβ42 fibrillization” value (Aβ42 [2]) was “ineffective”.

For (Lys-Sal)4-COβAla, the “Inhibition of spontaneous Aβ42 fibrillization” value (Aβ42 [2]) was “ineffective”.

In the case of Ac-(Lys-Sal)2-CONH2, the “Inhibition of spontaneous Aβ42 fibrillization” value (Aβ42 [2]) was “failed to inhibit assembly”.

Ac-(Lys-Sal)3-CONH2 was tested, and the “Inhibition of spontaneous Aβ42 fibrillization” value (Aβ42 [2]) was “failed to inhibit assembly”.

In the case of Ac-Sal-(Lys-Sal)3-CONH2, the “Effect on toxicity of Aβ42 conformers after 0.5 h of assembly” value [3] was “had no effect”, the “Effect on toxicity of Aβ42 conformers after 4 h of assembly” value [3] was “enhanced” and the “Inhibition of spontaneous Aβ43 fibrillization” value (Aβ43 [1]; Aβ43 5 μM, 25°C) was “did not block spontaneous Aβ43 fibrillization”. The “Effect on A11-reactive Aβ42 conformers after 0.5 h” value (Aβ42 oligomers) was “had no effect”, the “Effect on A11-reactive Aβ42 conformers after 4 h” value (Aβ42 oligomers) was “remained at higher levels” and the “Inhibition of seeded Aβ42 fibrillization” value (Aβ42 [4]; [7]) was “inhibited seeded Aβ42 fibrillization at all concentrations tested”. For the same compound, the “Inhibition of seeded Aβ42 fibrillization, different assembly conditions” value (Aβ42 [4]; foldamer 20 μM) was “inhibited”, the “Disassembly of Aβ42 fibrils” value (Aβ42 fibrils) was “did not disassemble Aβ42 fibrils” and the “Inhibition of spontaneous Aβ42 fibrillization” value (Aβ42 [2]) was “strong inhibitors; also recorded: potent inhibitors”. The “Inhibition of spontaneous Aβ42 fibrillization, different assembly conditions” value (Aβ42 [2]) was “inhibited”, the “Effect on A11-reactive Aβ43 conformers after 0.5 h” value (Aβ43 oligomers) was “had no effect” and the “Effect on A11-reactive Aβ43 conformers after 4 h” value (Aβ43 oligomers) was “declined more extensively”. For the same compound, the “Inhibition of seeded Aβ43 fibrillization” value (Aβ43 [5]) was “did not inhibit seeded Aβ43 fibrillization”, the “Inhibition of FUS aggregation” value (FUS) was “did not inhibit FUS aggregation” and the “Effect on toxicity of Aβ43 conformers after 0.5 h of assembly” value [6] was “neither Sal-(Lys-Sal)3-CONH2 nor Ac-Sal-(Lys-Sal)3-CONH2 affected the toxicity”. The “Effect on toxicity of Aβ43 conformers after 4 h of assembly” value [6] was “neither Sal-(Lys-Sal)3-CONH2 nor Ac-Sal-(Lys-Sal)3-CONH2 affected the toxicity”.

With Sal-(Lys-Sal)2-CONH2 the “Inhibition of spontaneous Aβ42 fibrillization” value (Aβ42 [2]) was “failed to inhibit assembly”.
